In US20120114588A1, “IBAT INHIBITORS FOR TREATMENT OF METABOLIC DISORDERS AND RELATED CONDITIONS” (ALBIREO AB, priority 2010, published 2012):

Tests used:
[1] = molecular target: T1, Ileal Bile Acid Transporter Human (Homo sapiens, UniProt Q12908); test: ISBT Hu HEK Uptake SPA: Human HEK Glycocholic acid Uptake Radiometric SPA; format: cell-based; settings: human IBAT in HEK cells
T1 construct: expressed in transfected cells; host or cells: HEK
T1 sequence (Q12908 1-348): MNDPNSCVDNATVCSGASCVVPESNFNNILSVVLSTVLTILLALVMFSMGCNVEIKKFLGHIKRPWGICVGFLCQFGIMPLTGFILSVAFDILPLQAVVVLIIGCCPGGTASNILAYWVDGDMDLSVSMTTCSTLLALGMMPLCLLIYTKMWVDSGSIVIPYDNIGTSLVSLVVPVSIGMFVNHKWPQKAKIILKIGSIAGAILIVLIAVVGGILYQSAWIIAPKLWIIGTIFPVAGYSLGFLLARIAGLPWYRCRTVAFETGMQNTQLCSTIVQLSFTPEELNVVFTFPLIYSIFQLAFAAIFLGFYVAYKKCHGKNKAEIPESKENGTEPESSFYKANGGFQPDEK
Method: ISBT Hu HEK Uptake SPA 13203 IBAT HUM Ileal Bile Acid Transporter Human HEK Glycocholic acid Uptake Radiometric—SPA Inhibitor IC50 Mean IC50 (nM) was determined for the compounds of examples 1-14

[2] = molecular target: T2, IBAT (Mus musculus, UniProt P70172); test: 75SeHCAT intestinal absorption (faecal excretion / body retention) in ApoE knock out mice; format: in vivo; settings: single oral dose 0.156 μmol/kg, 75SeHCAT given 30 min later, 24 h collection, read-out: % inhibition 0.156 μmol/kg (mean IBAT inhibitory effect)
T2 construct: from tissue; host or cells: living ApoE knock-out C57BL/6 mice (intestine, in vivo)
T2 sequence (P70172 1-348): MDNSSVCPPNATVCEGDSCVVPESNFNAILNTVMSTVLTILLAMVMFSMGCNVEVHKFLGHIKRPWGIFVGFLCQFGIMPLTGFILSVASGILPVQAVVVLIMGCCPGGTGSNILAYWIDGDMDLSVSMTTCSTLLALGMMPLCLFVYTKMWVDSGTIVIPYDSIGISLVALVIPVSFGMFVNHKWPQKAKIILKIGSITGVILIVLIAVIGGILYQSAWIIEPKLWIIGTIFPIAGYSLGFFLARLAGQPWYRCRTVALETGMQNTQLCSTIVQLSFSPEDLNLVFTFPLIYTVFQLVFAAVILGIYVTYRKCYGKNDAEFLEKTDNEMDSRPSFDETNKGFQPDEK
Method: Species Mouse; Strain ApoE knock out; Substrain C57BL/6; Sex Female; Total No. of animals 70; Body weight range 20 g to 22 g; Supplier Mollegaard's Breeding (Skensved, Denmark); Identification method ID cards (bar code).
Acclimatisation At least one week at the Section of Laboratory; Animal Resource at AstraZeneca; Housing conditions Kept five by five in cages (Makrolon III, 7 dm2) in a room with regulated temperature ([…]), relative humidity (40% to 60%) and a 12/12 hours light/dark cycle. Diet Free access to R3 pellets (Lactamin, Vadstena, Sweden) during the housing and experimental period. Water Free access to tap water during the housing and experimental period.
Volume(s) of administration 0.1 mL per mousen […]
The animals were orally administered vehicle or Example 14 (0.156 , 0.625 or 2.5 pmol/kg) at 13:00 o'clock on the experimental day. […] The gamma radioactivities of 75SeHCAT in the faeces and in the gall bladder-intestine were separately counted by 1282 CompuGamma CS Gamma counter (Wallac oy, Turku, Finland). The stability as well as the quantity of the 75SeHCAT administered to each mouse, were controlled with an additional 75SeHCAT aliquot following the same experimental process as other tested samples in the study. […]
The mean IBAT inhibitory effect (%) at a dose (pmol/kg): 0.156 was determined for the compounds of examples 1-14 and is reported in Table 1.

IC50 [1]: 0.15 nM
inhibition at 0.156 µmol/kg [2]: 63%
Structure (SMILES): CCCCC1(CCCC)CN(c2ccccc2)c2cc(SC)c(OCC(=O)N[C@@H](C(=O)N[C@@H](CC)C(=O)O)c3ccc(O)cc3)cc2S(=O)(=O)C1 [Example 11, 1,1-Dioxo-3,3-dibutyl-5-phenyl-7-methylthio-8-(N-{(R)-α-[N′-((S)-1-carboxypropyl)carbamoyl]-4-hydroxybenzyl}carbamoylmethoxy) -2,3,4,5-tetrahydro-1,5-benzothiazepine]
